Assay results taken from patent US8044089B2, “3-3-di-substituted-oxindoles as inhibitors of translation initiation” (President and Fellows of Harvard College, priority 2004, dated 2011).
pIC50: −log10 of the molar value.

Tests used:
[1] = system: eIF2α; test: eIF2α phosphorylation measured by Western blot; type: cell-based; details: for eIF2α-P (phosphorylation of eIF2α measured by Western blot): unit or reference not given
Description: (§1) As a non-limiting example, compounds 1272 and 1273 (set forth in Table 1) were synthesized starting from 3-bromoaniline, which upon condensation with hydroxylamine and chloral hydrate followed by concentrated sulfuric acid yielded an inseparable regioisomeric mixture of 4- and 6-bromo isatins. The addition of the two phenyl groups to the three position of the oxindole allowed easy chromatographic separation of the 4- and 6-bromo-3,3-diphenyloxindoles 1272 and 1273. Table 1 sets forth biological data for diaryloxindole compounds including, but not limited to 1272 and 1273. For Tables 1-14, Ca^2+ refers to Ca^2+ release from intracellular stores where a “+” denotes release and a “+/−” denotes inconclusive; eIF2α-P refers to phosphorylation of eIF2α measured by Western blot; SRB refers to the inhibitory concentration to reduce cell growth by 50% (IC50) for growth inhibition of A549 lung cancer cells; and n.d. is not determined.
(§2) Without intending to be bound by theory, the mechanism of action of translation initiation inhibitors is set forth in FIG. 1, and includes the depletion (complete or partial depletion) of intracellular calcium (Ca^2+) stores and phosphorylation of eIF2α. Compounds synthesized using the approaches described herein were screened for their ability to partially deplete intracellular Ca^2+ stores using FURA-2AM loaded cells (Benzaquen et al. (1995) Nature Medicine, 1:534, incorporated herein by reference in its entirety for all purposes). A limited subset of compounds were further screened for their ability to deplete endoplasmic reticulum (ER) Ca^2+. The Ca^2+ content of the ER was monitored using ER-targeted, Ca^2+ sensitive, recombinant proteins. These recombinant proteins emitted light by fluorescent resonance energy transfer (FRET) as a function of the Ca^2+ content of the medium. Such assays are previously described (Miyawaki, A.; Mizuno, H.; Llopis, J.; Tsien, R. Y.; Jalink, K. Cameleons as cytosolic and intra-organellar calcium probes, Oxford University Press: Oxford, London, 2001; pp 3-16, incorporated herein by reference in its entirety for all purposes). Compounds that depleted Ca^2+ were further evaluated for their ability to phosphorylate eIF2α. eIF2α phosphorylation was measured by Western blot analysis using the phospho-specific anti-eIF2α antibody, as previously described (Aktas et al. (1998) Proc. Natl. Acad. Sci. USA, 95:8280, incorporated herein by reference in its entirety for all purposes).

[2] = system: A549 lung cancer cells; test: SRB growth inhibition of A549 lung cancer cells; type: cell-based, human; details: for pIC50: A549 lung cancer cells, unit inferred, read-out: SRB (IC50 for growth inhibition of A549 lung cancer cells)
Description: As a non-limiting example, compounds 1272 and 1273 (set forth in Table 1) were synthesized starting from 3-bromoaniline, which upon condensation with hydroxylamine and chloral hydrate followed by concentrated sulfuric acid yielded an inseparable regioisomeric mixture of 4- and 6-bromo isatins. The addition of the two phenyl groups to the three position of the oxindole allowed easy chromatographic separation of the 4- and 6-bromo-3,3-diphenyloxindoles 1272 and 1273. Table 1 sets forth biological data for diaryloxindole compounds including, but not limited to 1272 and 1273. For Tables 1-14, Ca^2+ refers to Ca^2+ release from intracellular stores where a “+” denotes release and a “+/−” denotes inconclusive; eIF2α-P refers to phosphorylation of eIF2α measured by Western blot; SRB refers to the inhibitory concentration to reduce cell growth by 50% (IC50) for growth inhibition of A549 lung cancer cells; and n.d. is not determined. […]

[3] = system: intracellular Ca^2+ stores; test: Ca2+ release from intracellular stores (FURA-2AM loaded cells); type: cell-based; parameters: key to Ca^2+ (Ca^2+ release from intracellular stores): a “+” denotes release; a “+/−” denotes inconclusive
Description: as §1, §2

Compound | pIC50 [2] | eIF2α-P (phosphorylation of eIF2α measured by Western blot) [1] | Ca^2+ (Ca^2+ release from intracellular stores) [3] | eIF2α phosphorylation (in words) [1] | growth inhibition of cancer cells (in words) ([2]; A549)
CC(C)(C)c1ccc(O)c(C2(c3ccccc3)C(=O)Nc3cccc(Cl)c32)c1 (centres unmarked) [Compound 1209] | 5.10 | 2.08 | + |  | 
C=CCCCOc1ccc(C2(c3cc(C(C)(C)C)ccc3O)C(=O)Nc3ccccc32)cc1 (centres unmarked) [Compound 1218] | 5.15 | 1.36 |  |  | 
COC(=O)C(Cc1ccc(O)c(C2(c3ccccc3)C(=O)Nc3ccccc32)c1)NC(=O)OCC1c2ccccc2-c2ccccc21 (centres unmarked) [Compound 1172] |  | 1.94 | + |  | 
CCCCCCCCCCCCC1(c2cc(C(C)(C)C)ccc2O)C(=O)Nc2ccccc21 (centres unmarked) [Compound 1274] | 5.52 | 0.91 |  |  | 
O=C1Nc2c(I)cccc2C1(c1ccccc1)c1ccccc1 [Compound 1267] |  | 1.88 |  |  | 
O=C1Nc2ccc(S(=O)(=O)O)cc2C1(c1ccccc1)c1ccccc1 [Compound 1266] | 5.05 | 1.62 |  |  | 
CCc1cccc2c1NC(=O)C2(c1ccccc1)c1ccccc1 [Compound 1268] | 4.85 | 2.19 |  |  | 
CC(C)(C)c1ccc(O)c(C2(c3ccccc3)C(=O)Nc3c(Br)cccc32)c1 (centres unmarked) [Compound 1196] | 5.52 |  | + |  | 
CN(C)c1ccc(C2(c3ccc(O)cc3)C(=O)Nc3ccccc32)cc1 (centres unmarked) [Compound 1262] | 5.00 |  | +/− |  | 
O=C1Nc2ccc(OC(F)(F)F)cc2C1(c1ccccc1)c1ccccc1 [Compound 1263] | 5.10 |  | + |  | 
C=CCCCOc1ccc(O)c(C2(c3ccccc3)C(=O)Nc3ccccc32)c1 (centres unmarked) [Compound 1202] | 5.22 |  | + |  | 
O=C1Nc2ccccc2C1(c1ccc(O)cc1)c1ccc(Oc2ccccc2)cc1 (centres unmarked) [Compound 1260] | 4.92 |  | + |  | 
CN(C)CCCCOc1ccc(O)c(C2(c3ccccc3)C(=O)Nc3ccccc32)c1 (centres unmarked) [Compound 1216] | < 4.70 |  | +/− |  | 
CC(C)(C)c1ccc(O)c(C2(c3ccccc3)CNc3ccccc32)c1 (centres unmarked) [Compound 1182] | 4.92 |  | + |  | 
CC(C)(C)c1ccc(O)c(C2(c3ccccc3)C(=O)Nc3ccc(NS(=O)(=O)c4cccc5ccccc45)cc32)c1 (centres unmarked) [Compound 1238] | 5.52 |  | +/− |  | 
CC(C)(C)c1ccc(O)c(C2(c3cccs3)C(=O)Nc3ccccc32)c1 (centres unmarked) [Compound 1222] | 5.05 |  | + |  | 
[N-]=[N+]=NCCCCOc1ccc(O)c(C2(c3ccccc3)C(=O)Nc3ccccc32)c1 (centres unmarked) [Compound 1219] | 5.30 |  | + |  | 
O=C1Nc2ccccc2C1(c1cccc(Cl)c1)n1ccnc1 (centres unmarked) [Compound 1314] | < 4.70 |  | + |  | 
CC(C)(C)c1cccc(C2(n3ccnc3)C(=O)Nc3ccccc32)c1 (centres unmarked) [Compound 1318] | 5.70 |  | + |  | 

Further lines, with some results ahead:

pIC50 [2] | Compound | eIF2α-P (phosphorylation of eIF2α measured by Western blot) [1] | Ca^2+ (Ca^2+ release from intracellular stores) [3] | eIF2α phosphorylation (in words) [1] | growth inhibition of cancer cells (in words) ([2]; A549)
< 4.70 | COC(=O)c1ccc(Cl)c2c1NC(=O)C2(c1ccccc1)c1ccccc1 [Compound 1351] | 1.35 | +/− |  | 
5.40 | Cc1cc(C2(c3ccccc3)C(=O)Nc3ccccc32)c(NS(=O)(=O)c2ccc(-c3ccccc3)cc2)cc1O (centres unmarked) [Compound 1593] | 2.22 |  |  | 
5.30 | COc1ccc(S(=O)(=O)Nc2cc(O)c(C)cc2C2(c3ccccc3)C(=O)Nc3ccccc32)cc1 (centres unmarked) [Compound 1590] | 1.12 | + |  | 
4.80 | O=C1Nc2ccccc2C1(c1ccccc1)c1ccc(O)cc1 (centres unmarked) [Compound 1295] | 1.66 | + |  | 
5.40 | CC(=O)Nc1ccc(S(=O)(=O)Nc2cc(O)c(C)cc2C2(c3ccccc3)C(=O)Nc3ccccc32)cc1 (centres unmarked) [Compound 1512] | 1.01 |  |  | 
5.15 | CC(C)(C)c1ccc(OC(=O)CCCC(=O)O)c(C2(c3ccccc3)C(=O)Nc3ccccc32)c1 (centres unmarked) [Compound 1396] | 1.72 |  |  | 
5.52 | Cc1cc(C2(c3ccccc3)C(=O)Nc3ccccc32)c(NC(=O)OCC2c3ccccc3-c3ccccc32)cc1O (centres unmarked) [Compound 1395] | 1.84 |  |  | 
5.52 | Cc1cc(C2(c3ccccc3)C(=O)Nc3ccccc32)c(NC(=O)c2ccc(C(C)(C)C)cc2)cc1O (centres unmarked) [Compound 1493] | 2.06 |  |  | 
5.00 | CC(C)(C)c1ccc(O)c(C2(C3CCCCC3)C(=O)Nc3ccccc32)c1 (centres unmarked) [Compound 1277] | 1.08 |  |  | 
5.00 | COc1ccc(C2(c3ccccc3)C(=O)Nc3ccccc32)cc1 (centres unmarked) [Compound 1294] | 1.52 |  |  | 
5.52 | CCCCCCCCc1ccc(O)c(C2(c3ccccc3)C(=O)Nc3ccccc32)c1 (centres unmarked) [Compound 1284] | 2.91 |  |  | 
5.52 | CC(C)(C)OC(=O)NCCOc1ccc(C(C)(C)C)cc1C1(c2ccccc2)C(=O)Nc2ccccc21 (centres unmarked) [Compound 1329] | 0.89 |  |  | 
> 6.00 | CC(C)(C)c1ccc(S(=O)(=O)Nc2ccc(C3(c4ccccc4)C(=O)Nc4ccccc43)c(O)c2)cc1 (centres unmarked) [Compound 1624] |  | + |  | 
4.85 | O=C1Nc2c(CO)ccc(Cl)c2C1(c1ccccc1)c1ccccc1 [Compound 1398] | 1.48 |  | reduced eIF2α phosphorylation relative to compound 1392 | reduced potency of tumor cell growth inhibition
< 4.70 | O=C(O)c1cccc2c1NC(=O)C2(c1ccccc1)c1ccccc1 [Compound 1353] | 1.54 |  |  | 
5.52 | CC(C)(C)c1ccc(OC(=O)CCCC(=O)NO)c(C2(c3ccccc3)C(=O)Nc3ccccc32)c1 (centres unmarked) [Compound 1323] |  | + |  | 
5.30 | Cc1cc(C2(c3ccccc3)C(=O)Nc3ccccc32)c(NS(=O)(=O)c2ccc(Oc3ccccc3)cc2)cc1O (centres unmarked) [Compound 1594] | 3.73 |  |  | 
